Like-named read-outs stand apart in the source and are kept apart here.
Columns and labels:
Test in all cases: Pull-down assay with immobilized protein and LSM libraries
[1] = biological target: T1, S100B (Homo sapiens, UniProt P04271); type: binding; conditions: 1:1 binding assumed, read-out: Surface mapping KD (apparent)
T1 construct: made in house; host or cells: Escherichia coli BL21(DE3)
T1 sequence (P04271 1-92): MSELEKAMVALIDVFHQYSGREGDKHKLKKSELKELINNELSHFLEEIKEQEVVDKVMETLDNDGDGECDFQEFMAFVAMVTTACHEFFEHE
In short: (§1)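 Buffers were HEPES pH 7.4 with 150 mM NaCl, plus 1 mM TCEP and 1 mM CaCl2 (50 mM HEPES) for S100A4 and S100B, 1 mM TCEP for Gal-1, and no additive for RecQ-WH. Immobilized protein at 64 µM was equilibrated 30 min with the LSM sublibrary, and unbound probes were measured by LC-MS.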

[2] = biological target: T2, Gal-1 (Homo sapiens, UniProt P09382); type: binding; conditions: 1:1 binding assumed, read-out: Surface mapping KD (apparent)
T2 construct: made in house; host or cells: E. coli BL21(DE3)
In short: as §1

[3] = biological target: T3, CaM (Bos taurus, UniProt P62157); type: binding, bovine; conditions: 1:2 stoichiometry assumed, read-out: Surface mapping KD (apparent)
T3 construct: made in house; host or cells: E. coli BL21 (DE3)
In short: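 CaM buffer was 20 mM HEPES pH 7.4, 150 mM NaCl, 5 mM CaCl2. LSM sublibrary members ([…]) incubated 30 min, RT, with equimolar His-tagged protein on Co-NTA resin. HPLC-MS measured unbound probes; bound fraction relative to resin-only background gave dissociation constants.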

[4] = biological target: T4, S100A4 (Homo sapiens, UniProt P26447); type: binding; conditions: H14 library; 1:1 binding assumed; read-out: Surface mapping KD (apparent)
T4 construct: made in house; host or cells: Escherichia coli BL21(DE3)
In short: as §1

T2 sequence (P09382 whole entry): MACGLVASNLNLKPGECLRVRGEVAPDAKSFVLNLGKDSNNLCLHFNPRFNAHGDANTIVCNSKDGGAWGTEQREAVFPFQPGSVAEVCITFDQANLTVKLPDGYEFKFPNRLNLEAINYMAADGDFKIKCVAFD
T4 sequence (P26447 whole entry): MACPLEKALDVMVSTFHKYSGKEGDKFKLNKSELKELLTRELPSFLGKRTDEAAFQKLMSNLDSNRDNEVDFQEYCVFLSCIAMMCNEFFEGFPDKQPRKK

SMILES | Kd ([1]; H12 library) [µM] | Kd ([2]; H12 library) [µM] | Kd ([3]; H12 library) [µM] | Kd ([1]; H14 library) [µM] | Kd ([2]; H14 library) [µM] | Kd ([3]; H14 library) [µM] | Kd [4] [µM]
CSCC[C@@H](CC(=O)N[C@H]1CCC[C@@H]1C(=O)N[C@H]1CCC[C@@H]1C(=O)N[C@H](CC(=O)N[C@H]1CCC[C@@H]1C(=O)N[C@H]1CCC[C@@H]1C(N)=O)C(C)C)NC(=O)[C@H]1CCC[C@@H]1NC(=O)[C@H]1CCC[C@@H]1N [H12 MV] | 127 | 247 | 342 | – | – | – | –
CSCC[C@@H](CC(=O)N[C@H]1CCC[C@@H]1C(=O)N[C@H]1CCC[C@@H]1C(=O)N[C@H](CC(=O)N[C@H]1CCC[C@@H]1C(=O)N[C@H]1CCC[C@@H]1C(N)=O)Cc1ccc(O)cc1)NC(=O)[C@H]1CCC[C@@H]1NC(=O)[C@H]1CCC[C@@H]1N [H12 MY] | 102 | 286 | 178 | – | – | – | –
NC(=O)CC[C@@H](CC(=O)N[C@H]1CCC[C@@H]1C(=O)N[C@H]1CCC[C@@H]1C(=O)N[C@H](CC(=O)N[C@H]1CCC[C@@H]1C(=O)N[C@H]1CCC[C@@H]1C(N)=O)Cc1c[nH]c2ccccc12)NC(=O)[C@H]1CCC[C@@H]1NC(=O)[C@H]1CCC[C@@H]1N [H12 QW] | 170 | 412 | 55 | – | – | – | –
N=C(N)NCCC[C@@H](CC(=O)N[C@H]1CCC[C@@H]1C(=O)N[C@H]1CCC[C@@H]1C(=O)N[C@@H](CCCCN)CC(=O)N[C@H]1CCC[C@@H]1C(=O)N[C@H]1CCC[C@@H]1C(N)=O)NC(=O)[C@H]1CCC[C@@H]1NC(=O)[C@H]1CCC[C@@H]1N [H12 RK] | 146 | 231 | 330 | – | – | – | –
NC(=O)[C@H]1CCC[C@@H]1NC(=O)[C@H]1CCC[C@@H]1NC(=O)C[C@H](Cc1c[nH]c2ccccc12)NC(=O)[C@H]1CCC[C@@H]1NC(=O)[C@H]1CCC[C@@H]1NC(=O)C[C@H](CO)NC(=O)[C@H]1CCC[C@@H]1NC(=O)[C@H]1CCC[C@@H]1N [H12 SW] | 114 | 459 | 41 | – | – | – | –
C[C@@H](CC(=O)N[C@H]1CCC[C@@H]1C(=O)N[C@H]1CCC[C@@H]1C(N)=O)NC(=O)[C@H]1CCC[C@@H]1NC(=O)[C@H]1CCC[C@@H]1NC(=O)C[C@H](Cc1c[nH]c2ccccc12)NC(=O)[C@H]1CCC[C@@H]1NC(=O)[C@H]1CCC[C@@H]1N [H12 WA] | 60 | 385 | 303 | – | – | – | –
C[C@@H](O)[C@@H](CC(=O)N[C@H]1CCC[C@@H]1C(=O)N[C@H]1CCC[C@@H]1C(N)=O)NC(=O)[C@H]1CCC[C@@H]1NC(=O)[C@H]1CCC[C@@H]1NC(=O)C[C@H](Cc1c[nH]c2ccccc12)NC(=O)[C@H]1CCC[C@@H]1NC(=O)[C@H]1CCC[C@@H]1N [H12 WT] | 56 | 448 | 365 | – | – | – | –
CSCC[C@@H](CC(=O)N[C@H]1CCC[C@@H]1C(=O)N[C@H]1CCC[C@@H]1C(N)=O)NC(=O)[C@H]1CCC[C@@H]1NC(=O)[C@H]1CCC[C@@H]1NC(=O)C[C@H](Cc1ccc(O)cc1)NC(=O)[C@H]1CCC[C@@H]1NC(=O)[C@H]1CCC[C@@H]1N [H12 YM] | 102 | 286 | 178 | – | – | – | –
NC(=O)[C@H]1CCC[C@@H]1NC(=O)[C@H]1CCC[C@@H]1NC(=O)C[C@H](Cc1ccc(O)cc1)NC(=O)[C@H]1CCC[C@@H]1NC(=O)[C@H]1CCC[C@@H]1NC(=O)C[C@H](Cc1ccc(O)cc1)NC(=O)[C@H]1CCC[C@@H]1NC(=O)[C@H]1CCC[C@@H]1N [H12 YY] | 128 | 243 | 443 | – | – | – | –
C[C@@H](CC(=O)N[C@H]1CCCC[C@@H]1C(=O)N[C@H]1CCCC[C@@H]1C(=O)N[C@@H](CCCNC(=N)N)CC(=O)N[C@H]1CCCC[C@@H]1C(N)=O)NC(=O)[C@H]1CCCC[C@@H]1N [H14 AR] | – | – | – | 126 | 348 | 126 | –
NCCCC[C@@H](CC(=O)N[C@H]1CCCC[C@@H]1C(N)=O)NC(=O)[C@H]1CCCC[C@@H]1NC(=O)[C@H]1CCCC[C@@H]1NC(=O)C[C@H](CO)NC(=O)[C@H]1CCCC[C@@H]1N [H14 SK] | – | – | – | 181 | 438 | 91 | –
NC(=O)[C@H]1CCCC[C@@H]1NC(=O)C[C@H](CCC(=O)O)NC(=O)[C@H]1CCCC[C@@H]1NC(=O)[C@H]1CCCC[C@@H]1NC(=O)C[C@H](Cc1ccc(O)cc1)NC(=O)[C@H]1CCCC[C@@H]1N [H14 YE] | – | – | – | – | – | – | 371
